“Also recorded” adds a separate entry of the source.

Series [1] relates to SURF1-deficient fibroblasts. The series is described as follows: Cell viability by Calcein AM in mitochondrial stressor media. The format is cell-based, human. The conditions noted are these: SURF1-deficient fibroblasts; FIG. 2A. The protocol:
(§1) Fibroblasts previously derived from four patients with primary mitochondrial disease (Surf1, Complex I, Cox10, Polg), three patients with NGLY1 deficiency and four normal controls were used for the study. All samples were obtained with informed consent and approved by the Stanford IRB. Fibroblasts were maintained in DMEM medium containing 8.3 mM glucose and supplemented with 10% fetal bovine serum (FBS)(Fisher Scientific), 1% Penicillin-Streptomycin (10,000 U/mL)(Life Technologies), 1% glutaMAX (Life Technologies), 1% uridine (5 mg/ml) and 1% pyruvate (11 mg/ml) at 37° C., 5% CO2. For the screening of various compounds, 15×10^3 cells/500 ul media were seeded in quadruplets on 24 well microtiter plates. The following day, the medium was removed, wells washed with PBS and replaced with a mitochondrial stressor media containing DMEM, 1% Penicillin-Streptomycin (10,000 U/mL)(Life Technologies), 10% FCS (Fisher Scientific), 1 mM Galactose (Sigma Aldrich), and 25 μM sodium azide with or without the following compounds: 1 mM AICAR (Medchem Express), 1 mM Metformin (Sigma Aldrich), 100 μM PT1 (Santa Cruz Biotechnology), 100 μ[…] Express). Following treatment with the various compounds, tissue cultures were analyzed for growth, oxygen consumption rate, and ATP levels. Methods: Cell growth was measured by a fluorometric method using Calcein AM (Anaspec). Mitochondrial stressor media was removed, wells washed with PBS and then incubated with 500 ul/well of 800 nM Calcein AM in PBS for 30 min at 37 C, 5% CO2. Cell viability was measured by values obtained using a 485 nm excitation with the Flouroskan Ascent Microplate Fluorometer (Thermo Scientific).

The subject of series [2] is POLG-deficient fibroblasts. Described as above. The format is cell-based, human. Particulars: FIG. 2D. The protocol: as §1
Series [3] relates to COX10-deficient fibroblasts. The description is as above. The class given is cell-based, human. The conditions noted are these: FIG. 2B. On the procedure: as §1
The subject of series [4] is COX10 deficient fibroblasts. The experiment in a line: Cell viability (Calcein AM) in siRNA knockdown study. The format is cell-based, human. The conditions noted are these: PT1 alone and siCNT+PT1 vs DMSO and siAMPK+PT1; FIG. 4B. On the procedure: Methods: Cell growth was measured by a fluorometric method using Calcein AM (Anaspec). Mitochondrial stressor media was removed, wells washed with PBS and then incubated with 500 ul/well of 800 nM Calcein AM in PBS for 30 min at 37 C, 5% CO2. Cell viability was measured by values obtained using a 485 nm excitation with the Flouroskan Ascent Microplate Fluorometer (Thermo Scientific).
To test whether the cellular response to PT1 is a result of AMPK activation itself, or is merely a result of nonspecific interactions, an siRNA knockdown strategy was used. siRNA for PRKAA1 (s101) and a negative control (Life Technologies) were incubated with Hiperfect reagent (Qiagen) in media containing DMEM, 1% Penicillin-Streptomycin (10,000 U/mL) (Life Technologies), 1% glutaMAX (Life Technologies) but no serum and allowed to complex for 10 min at room temperature. […] At the end of the incubation period, the cells were analyzed for levels of AMPK and pAMPK by western blot analysis (see protocol above) or incubated for six additional days with PT1 (or DMSO as untreated control) and assessed for viability by Calcein AM. COX10-deficient fibroblasts were treated with PT1 and either siAMPK or siCNT, and responses were evaluated for pAMPK protein expression by western blotting (FIG. 4A), cell viability by Calcein AM fluorescence assay (FIG. 4B), and cell morphology by phase contrast microscopy (FIGS. 4C-4F)

For series [5], the system named is POLG deficient fibroblasts. The series is described as follows: ROS levels, CellROX Deep Red Flow Cytometry Assay. The class given is cell-based, human. Particulars: PT1 72 hrs vs DMSO. On the procedure:
(§2) Methods: SURF1, POLG, and NGLY1 patient cells were supplemented with PT1 or DMSO (untreated control) for 48 hrs (n=3) and ATP levels measured by the CellTiter-Glo ATP Assay or for 72 hrs (n=3) and ROS levels were measured by the CellROX Deep Red Flow Cytometry Assay. Results were normalized to total protein concentration. Data are represented as the mean±standard error of the mean. Statistical significance was measured to p<0.05.

For series [6], the system named is NGLY1 deficient fibroblasts. The experiment in a line: ROS levels, CellROX Deep Red Flow Cytometry Assay. The conditions noted are these: PT1 72 hrs vs DMSO. The format is cell-based, human. On the procedure: as §2
On the technique in general: In flow cytometry, cells or beads pass a laser one at a time.

Series [7] concerns SURF1 deficient fibroblasts. The series is described as follows: ROS levels, CellROX Deep Red Flow Cytometry Assay. The format is cell-based, human. The conditions noted are these: PT1 72 hrs vs DMSO. On the procedure: as §2
Series [8] concerns SURF1-deficient fibroblasts. The experiment in a line: Cellular morphology by phase-contrast microscopy. The format is cell-based, human. Particulars: vs DMSO. An excerpt:
(§3) Fibroblasts in tissue culture were visualized by phase-contrast microscopy with a Leica DM IRB microscope at ×10 magnification, and images were taken with the Hamamatsu ORCA-ER camera.

Series [9] deals with POLG-deficient fibroblasts. The series is described as follows: Cellular morphology by phase-contrast microscopy. Particulars: vs untreated. The class given is cell-based, human.
From the text: as §3

The next series relates to CI-deficient fibroblasts. The experiment in a line: Cellular morphology by phase-contrast microscopy. The format is cell-based, human. The conditions noted are these: vs untreated.
From the text: as §3

For series [10], the system named is NGLY1 deficient fibroblasts. The series is described as follows: Cellular morphology by phase-contrast microscopy. The class given is cell-based, human. Particulars: NGLY-1 deficient fibroblasts; vs untreated.
From the text: as §3

In series [11] the test system is COX10-deficient fibroblasts. The experiment in a line: Cellular morphology by phase-contrast microscopy. The class given is cell-based, human. Particulars: vs untreated.
From the text: as §3

The test system of series [12] is sodium iodate (SI) induced AMD model. The series is described as follows: Sodium iodate (SI) induced AMD model: funduscopy, H&E retinal sections, ONL thickness, ERG. The format is in vivo, mice. The protocol:
Methods: To generate an AMD model, mice were treated with 100 mg/kg of PT1 (or vehicle) 24 hrs and 12 hrs prior to SI (or vehicle) treatment, then treated every 24 hrs for 3 days post-SI. Both PT1 and SI were delivered by intraperitoneal (IP) injections and animals were phenotyped 3 days post-SI administration. Mice were anesthetized and their pupils dilated using 1% atropine sulfate, 2.5% phenylephrine hydrochloride, and 0.5% proparacaine hydrochloride. Funduscopy was performed using the Micron III small animal retinal imaging AD camera (Phoenix Research Laboratories, INC). Retinal function was evaluated by recording of dark- and light-adapted ERG (Espion E2 System, Diagnosys LLC). Mice were dark adapted overnight before ERG recording, and all procedures were performed in the dark or under dim red light. Mice were anesthetized and their pupils dilated as described above. For the ERG recordings, electrodes were placed on the center of cornea. A ground needle electrode was placed in the base of the tail, and reference needle electrode was placed subdermally between the eyes. The a-wave amplitude was measured from the baseline to the trough of the a-wave, and b-wave amplitude was measured from the trough of the a-wave to the peak of the b-wave.

Take `Cc1cc(-c2ccc(C=C3SC(=S)N(c4ccc(Cl)c(C(=O)O)c4)C3=O)o2)c([N+](=O)[O-])cc1C` [PT1]: the survival / viability entry in series [1] is listed as “largest improvement”; in series [2], “improves survival; also recorded: significantly improved survival”; in series [3], “improves survival; also recorded: significantly improved survival”. The cell viability result in series [4] is given as “increased viability”. Besides, the “reduction in ROS levels” value is listed as 15% in series [5], 18% in series [6] and 10% in [7]. The cellular morphology result in series [8] is given as “improved cellular morphology; also recorded: cell morphology improved”; in series [9], “cell morphology improved”; in the series with CI-deficient fibroblasts it was “cell morphology improved”; in series [10] it was “cell morphology improved”; in series [11] it was “cell morphology improved”. Besides, in series [12] (+SI, +PT1 vs +SI, 100 mg/kg IP, FIG. 9A, 100 mg/kg), the “funduscopy, signs of retinal degeneration (white deposits)” value is listed as “improved signs of retinal degeneration; also recorded: Fewer white deposits”. In [12] (+SI, +PT1 vs +SI, FIG. 9B), the “H&E retinal sections: ONL thinning” value is “protection against ONL thinning; also recorded: protects against ONL thinning”. The “H&E retinal sections: melanin debris” value in series [12] (+SI, +PT1 vs +SI, FIG. 9B) is listed as “decreases melanin debris”. In series [12] (+SI, +PT1 vs +SI, FIG. 9B), the “H&E retinal sections: photoreceptor IS/OS morphology” value is on record as “prevents alterations in photoreceptor IS/OS morphology”. In addition, the ONL thickness result in [12] (+SI, +PT1 vs +SI, FIG. 9C) was “greater thickness; also recorded: significantly improved”. In [12] (+SI, +PT1 vs +SI, FIG. 9D), the “electroretinography, rod responses (scotopic a-wave and b-wave)” value is listed as “improved electrical response; also recorded: significantly increased rod responses”. Further, the “ONL thickness, PT1 treatment alone” value in series [12] (−SI, +PT1 vs −SI) is “does not alter ONL thickness”. Moreover, the “funduscopy, PT1 treatment alone” value in [12] (−SI, +PT1 vs −SI) is “similar, normal tissue; also recorded: does not alter funduscopy results”.

Values taken from patent US12377077B2, “Methods and formulations to treat mitochondrial dysfunction” (The Board of Trustees of the Leland Stanford Junior …, priority 2018, dated 2025).
